Measured values from US4623662A, “Antiatherosclerotic ureas and thioureas” (American Cyanamid Company, priority 1985, dated 1986).
Read-outs that look alike come from different tables or passages of the source.

What was measured:
[1] = biological target: T1, fatty acyl CoA: cholesterol acyl transferase (ACAT) (Rattus norvegicus, UniProt O70536); test: Inhibition of fatty acyl CoA:cholesterol acyl transferase (ACAT), rat adrenal enzyme; type: biochemical; conditions: for IC50: several concentrations
T1 construct: The supernatant, containing the microsomal fraction, served as the source of the cholesterol-esterifying enzyme; from tissue; host or cells: rat adrenals, supernatant of 1,000 x g centrifugation containing the microsomal fraction
T1 sequence (O70536 1-545): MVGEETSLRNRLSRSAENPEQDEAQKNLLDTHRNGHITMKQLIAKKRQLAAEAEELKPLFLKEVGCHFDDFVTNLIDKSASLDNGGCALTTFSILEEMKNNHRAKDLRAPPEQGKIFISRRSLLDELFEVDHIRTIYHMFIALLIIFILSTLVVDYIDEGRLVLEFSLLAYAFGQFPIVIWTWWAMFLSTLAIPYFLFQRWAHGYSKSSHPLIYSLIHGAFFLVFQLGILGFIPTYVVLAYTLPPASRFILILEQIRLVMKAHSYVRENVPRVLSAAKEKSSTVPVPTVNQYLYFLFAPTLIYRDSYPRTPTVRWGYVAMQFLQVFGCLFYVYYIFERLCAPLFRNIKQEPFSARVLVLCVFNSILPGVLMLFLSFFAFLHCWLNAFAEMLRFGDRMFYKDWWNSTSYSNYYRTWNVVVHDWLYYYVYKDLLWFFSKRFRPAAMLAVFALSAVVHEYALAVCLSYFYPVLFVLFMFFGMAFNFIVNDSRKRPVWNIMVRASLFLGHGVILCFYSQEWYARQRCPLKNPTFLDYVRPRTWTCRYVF
How it was run: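 Enzyme source was the microsomal supernatant of rat adrenal homogenate (0.2M potassium phosphate, pH 7.4) with BSA, preincubated with compound (5.2 μg/ml final for single-point) for 10 min at 37° C. Then [14C]oleoyl CoA added, 10 min at 37° C. TLC-separated cholesteryl ester was counted; percent inhibition versus control, IC50 from several concentrations.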

cholesterol absorption = test: Inhibition of cholesterol absorption in rats fed 1% cholesterol:0.5% cholic acid diet; type: in vivo, male Sprague-Dawley rats; conditions: po, 336 h, rat, 2 weeks; for response vs control in vivo at 0.03 %: dose .03% of the diet; for response vs control in vivo at 0.01 %: dose .01% of the diet
How it was run: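 Male Sprague-Dawley rats (150-170 g) fed 1% cholesterol:0.5% cholic acid diet for 2 weeks with compound at 0.001, 0.003, 0.01 or 0.03% of diet. Serum cholesterol measured enzymatically; liver cholesterol from saponified large-lobe sample after petroleum ether extraction. Liver and serum sterol expressed as percent of untreated controls.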

[2] = rat adrenal ACAT, final concentration 5.2 μg/ml, read-out: % Inhibition
[3] = read-out: LS (liver sterol), percentage of control values
[4] = read-out: SS (serum sterol), percentage of control values

Row | inhibition at 5.2 µg/mL [1, 2] | IC50 ([1]; rat adrenal ACAT) | Structure (SMILES) | response vs control in vivo at 0.03 % (cholesterol absorption; [3]) | response vs control in vivo at 0.03 % (cholesterol absorption; [4]) | inhibition at 5.2 µg/mL [1] | response vs control in vivo at 0.01 % (cholesterol absorption; [3]) | response vs control in vivo at 0.01 % (cholesterol absorption; [4])
1 | 92% | – | CCCCc1ccc(CN(Cc2ccccc2)C(=O)Nc2ccc(CCCC)cc2)cc1 [1-Benzyl-1-(4-n-butylbenzyl)-3-(4-n-butylphenyl)urea] | 61% | 53% | – | – | –
2 | 97.4% | – | CCCCCCCN(Cc1ccc(CCCC)cc1)C(=O)Nc1ccccc1C [1-(n-Heptyl)-1-(4-n-butylbenzyl)-3-(2-methylphenyl)urea] | 29% | 35% | – | – | –
3 | 87.8% | – | CCCCN(Cc1ccccc1)C(=O)Nc1c(Cl)cc(Cl)cc1Cl [1-Benzyl-1-( -n-butyl)-3-(2,4,6-trichlorophenyl)urea] | 32% | 48% | – | – | –
4 | 94.2% | – | CCCCN(Cc1ccccc1)C(=O)Nc1cc(C)cc(C)c1 [1-Benzyl-1-( -n-butyl)-3-(3,5-dimethylphenyl)urea] | 75% | 93% | – | – | –
5 | 90.5% | – | CCCCc1ccc(CN(Cc2ccccc2)C(=O)Nc2cc(C)c(C)cc2C)cc1 [1-Benzyl-1-(4-n-butylbenzyl)-3-(2,4,5-trimethylphenyl)urea] | 10% | 50% | – | – | –
6 | 86% | – | O=C(Nc1cc(Cl)c(Cl)cc1Cl)N(Cc1ccc(Cl)cc1)Cc1cccc2ccccc12 [1-(4-Chlorobenzyl)-1-(1-naphthylmethyl)-3-(2,4,5-trichlorophenyl)urea] | 97% | 84% | – | – | –
7 | 94.8% | – | CCCCCCCN(Cc1ccc(CCCC)cc1)C(=O)Nc1ccc(C)cc1C [1-(n-Heptyl)-1-(4-n-butylbenzyl)-3-(2,4-dimethylphenyl)urea] | 14% | 46% | – | – | –
8 | – | 1170 nM | CCCCCCCN(Cc1ccc(C(C)C)cc1)C(=O)Nc1ccc(F)cc1F [1-(n-Heptyl)-1-[4-(isopropyl)benzyl]-3-(2,4-difluorophenyl)urea] | – | – | – | 64% | 77%

Second part, the compound before the results:

Row | Structure (SMILES) | inhibition at 5.2 µg/mL [1, 2] | IC50 ([1]; rat adrenal ACAT) | response vs control in vivo at 0.03 % (cholesterol absorption; [3]) | response vs control in vivo at 0.03 % (cholesterol absorption; [4]) | inhibition at 5.2 µg/mL [1] | response vs control in vivo at 0.01 % (cholesterol absorption; [3]) | response vs control in vivo at 0.01 % (cholesterol absorption; [4])
9 | CCCCc1ccc(CN(CCCCCCCl)C(=O)Nc2ccc(Cl)cc2C)cc1 [1-[(4-Butylphenyl)methyl]-1-(6-chlorohexyl)-3-(4-chloro-2-methylphenyl)urea] | – | – | 35% | 46% | 90% | – | –
10 | Cc1cc(Cl)cc(C)c1NC(=O)N(CCC(C)(C)C)Cc1ccc(Cl)cc1 [1-(3,3-Dimethylbutyl)-1-(4-chlorobenzyl)-3-(4-chloro-2,6-dimethylphenyl)urea] | – | – | 25% | 46% | 90% | – | –
11 | CCCCOc1ccc(CN(Cc2ccccc2)C(=O)Nc2ccc(Cl)cc2C(F)(F)F)cc1 [1-Benzyl-1-(4-n-butoxybenzyl)-3-(2-trifluoromethyl-4-chlorophenyl)urea] | 85% | – | 31% | 58% | – | – | –
12 | CCCCCCCN(Cc1ccc(OCCCC)cc1)C(=O)Nc1c(Cl)cc(Cl)cc1Cl [1-(n-Heptyl)-1-(4-n-butoxybenzyl)-3-(2,4,6-trichlorophenyl)urea] | – | – | 11% | 35% | 90% | – | –
13 | Cc1ccc(NC(=O)N(Cc2ccccc2)C(Cc2ccccc2)c2ccccc2)c(C)c1 (stereo not drawn) [1-Benzyl-1-(1,2-diphenylethyl)-3-(2,4-dimethylphenyl)urea] | 95% | – | 63% | 52% | – | – | –
14 | CCCCOc1ccc(CN(Cc2ccccc2)C(=O)Nc2ccc(F)cc2F)cc1 [1-Benzyl-1-(4-n-butoxybenzyl)-3-(2,4-difluorophenyl)urea] | 88% | – | 22% | 53% | – | – | –
15 | CCCCCCCN(Cc1ccc(CCC(C)C)cc1)C(=O)Nc1ccc(Cl)cc1C [1-(n-Heptyl)-1-[4-(4-isopentyl)benzyl]-3-(4-chloro-2-methylphenyl)urea] | – | 2400 nM | – | – | – | 17% | 20%
16 | CCCCCCCN(Cc1ccc(CCCCO)cc1)C(=O)Nc1c(C)cc(Cl)cc1C [1-(n-Heptyl)-1-[4-(4-hydroxybutyl)benzyl]-3-(4-chloro-2,6-dimethylphenyl)urea] | – | 820 nM | – | – | – | 26% | 24%
17 | CCCCc1ccc(CN(CCC(C)(C)C)C(=O)Nc2ccc(F)cc2F)cc1 [1-(3,3-Dimethylbutyl)-1-[4-(n-butyl)benzyl]-3-(2,4-difluorophenyl)urea] | – | – | 30% | 39% | 90% | – | –
18 | CCCCc1ccc(CN(CCCCC[Si](C)(C)C)C(=O)Nc2ccc(Cl)cc2C)cc1 [1-[(4-Butylphenyl)methyl]-3-(4-chloro-2-methylphenyl)-1-[5-(trimethylsilyl)pentyl]urea] | – | – | 62% | 50% | 90% | – | –
19 | CCCCc1ccc(CN(CCCCC(C)(C)C)C(=O)Nc2c(Cl)cc(Cl)cc2Cl)cc1 [1-(5,5-Dimethylhexyl)-1-[4-(n-butyl)benzyl]-3-(2,4,6-trichlorophenyl)urea] | – | – | 32% | 45% | 90% | – | –
20 | CCCCOc1ccc(CN(Cc2ccccc2)C(=O)Nc2c(Cl)cc(Cl)cc2Cl)cc1 [1-Benzyl-1-(4-n-butoxybenzyl)-3-(2,4,6-trichlorophenyl)urea] | 95.2% | – | 8% | 40% | – | – | –
21 | CCCCc1ccc(CN(CCOCCO)C(=O)Nc2cc(C)c(C)cc2C)cc1 [1-[(4-Butylphenyl)methyl]-1-[2-(2-hydroxyethoxy)ethyl]-3-(2,4,5-trimethylphenyl)urea] | 85.9% | – | 76% | 100% | – | – | –
22 | CCCCCOc1ccc(CN(Cc2ccc(CCCCC)cc2)C(=O)Nc2cc(Cl)c(Cl)cc2Cl)cc1 [1-(4-n-Pentylbenzyl)-1-(4-n-pentyloxybenzyl)-3-(2,4,5-trichlorophenyl)urea] | 80% | – | 92% | 85% | – | – | –
23 | CC(C)(C)CCN(Cc1ccc(CC(C)(C)C)cc1)C(=O)Nc1ccc(F)cc1F [1-(3,3-Dimethylbutyl)-1-[4-(2,2-dimethylpropyl)benzyl]-3-(2,4-difluorophenyl)urea] | – | – | 19% | 35% | 90% | – | –
24 | Cc1cc(Cl)cc(C)c1NC(=O)N(CCC(C)C)Cc1ccc(C(C)C)cc1 [1-(Isopentyl)-1-[4-(isopropyl)benzyl]-3-(4-chloro-2,6-dimethylphenyl)urea] | – | 540 nM | 23% | 23% | – | – | –
25 | Cc1cc(C)c(NC(=O)N(Cc2ccccc2)C(Cc2ccccc2)c2ccc(OCc3ccccc3)cc2)c(C)c1 (stereo not drawn) [1-Benzyl-1-[2-phenyl-1-(4-benzyloxyphenyl)ethyl]-3-(2,4,6-trimethylphenyl)urea] | – | – | 49% | 60% | 90% | – | –
